# Measurements from ChEMBL document CHEMBL1133592, “trans-1-[(2-Phenylcyclopropyl)methyl]-4-arylpiperazines: mixed dopamine D(2)/D(4) receptor antagonists as potential antipsychotic agents” (J Med Chem, 2000).
# Test system: not listed separately
# Test: Half-life determined upon exposure to human liver microsomes
# Format: ADME, Microsome
# Conditions: not given
row,half-life [min],Compound
1,16,Br.Cc1ccc(N2CCN(C[C@@H]3C[C@H]3c3ccccc3)CC2)c(C)c1
2,19,Br.Clc1ccc(N2CCN(C[C@H]3C[C@@H]3c3ccccc3)CC2)c(Cl)c1

# Species: Rattus norvegicus
# Test: animal or person
# Conditions: read-out: MED
# Description: Minimum effective dose that produced a significant effect relative to the amphetamine alone control using a Fisher's LSD post hoc test (P<0.05)
row,Compound,minimal effective dose [mg/kg]
1,CN1CCN(C2=Nc3cc(Cl)ccc3Nc3ccccc32)CC1 [CLOZAPINE],0.5
2,O=C(CCCN1CCC(O)(c2ccc(Cl)cc2)CC1)c1ccc(F)cc1 [HALOPERIDOL],0.06

# Test system: not listed separately
# Test: Half-life determined upon exposure to rat liver microsomes
# Format: ADME, Microsome
# Conditions: not given
row,half-life [min],Compound
1,3,Br.Cc1ccc(N2CCN(C[C@@H]3C[C@H]3c3ccccc3)CC2)c(C)c1
2,2,Br.Clc1ccc(N2CCN(C[C@H]3C[C@@H]3c3ccccc3)CC2)c(Cl)c1

# Biological target: T1, Adrenergic receptor alpha-1 (Rattus norvegicus, UniProt P15823+P23944+P43140)
# T1 sequence (P15823 whole entry): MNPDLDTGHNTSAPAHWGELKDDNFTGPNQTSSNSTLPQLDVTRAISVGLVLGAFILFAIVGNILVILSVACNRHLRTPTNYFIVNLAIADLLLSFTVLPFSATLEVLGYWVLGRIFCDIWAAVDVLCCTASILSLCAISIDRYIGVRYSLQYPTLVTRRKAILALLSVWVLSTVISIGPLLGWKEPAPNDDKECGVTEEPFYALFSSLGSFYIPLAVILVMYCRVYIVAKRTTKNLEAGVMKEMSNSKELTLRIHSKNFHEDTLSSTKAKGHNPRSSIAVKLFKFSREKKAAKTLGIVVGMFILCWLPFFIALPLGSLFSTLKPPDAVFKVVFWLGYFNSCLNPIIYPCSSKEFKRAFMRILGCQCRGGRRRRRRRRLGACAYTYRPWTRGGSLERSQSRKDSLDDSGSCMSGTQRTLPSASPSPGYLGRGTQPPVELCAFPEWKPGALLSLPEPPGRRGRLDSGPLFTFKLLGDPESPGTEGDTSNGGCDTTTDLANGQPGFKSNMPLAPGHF
# T1 sequence (P23944 whole entry): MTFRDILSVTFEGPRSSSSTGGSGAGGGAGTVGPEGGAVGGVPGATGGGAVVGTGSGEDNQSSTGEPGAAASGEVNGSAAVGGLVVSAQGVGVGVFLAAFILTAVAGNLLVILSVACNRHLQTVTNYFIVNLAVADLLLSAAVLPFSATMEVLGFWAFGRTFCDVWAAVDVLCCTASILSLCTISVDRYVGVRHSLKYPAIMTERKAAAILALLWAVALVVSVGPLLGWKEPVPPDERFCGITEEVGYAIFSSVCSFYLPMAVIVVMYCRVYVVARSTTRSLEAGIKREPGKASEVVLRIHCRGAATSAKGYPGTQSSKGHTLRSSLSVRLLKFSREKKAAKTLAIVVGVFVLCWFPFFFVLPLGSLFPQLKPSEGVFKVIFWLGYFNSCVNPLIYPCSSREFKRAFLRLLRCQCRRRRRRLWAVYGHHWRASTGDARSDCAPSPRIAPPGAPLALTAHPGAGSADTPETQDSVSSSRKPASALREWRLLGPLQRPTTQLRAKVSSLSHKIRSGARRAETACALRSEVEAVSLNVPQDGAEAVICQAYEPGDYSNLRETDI
# T1 sequence (P43140 whole entry): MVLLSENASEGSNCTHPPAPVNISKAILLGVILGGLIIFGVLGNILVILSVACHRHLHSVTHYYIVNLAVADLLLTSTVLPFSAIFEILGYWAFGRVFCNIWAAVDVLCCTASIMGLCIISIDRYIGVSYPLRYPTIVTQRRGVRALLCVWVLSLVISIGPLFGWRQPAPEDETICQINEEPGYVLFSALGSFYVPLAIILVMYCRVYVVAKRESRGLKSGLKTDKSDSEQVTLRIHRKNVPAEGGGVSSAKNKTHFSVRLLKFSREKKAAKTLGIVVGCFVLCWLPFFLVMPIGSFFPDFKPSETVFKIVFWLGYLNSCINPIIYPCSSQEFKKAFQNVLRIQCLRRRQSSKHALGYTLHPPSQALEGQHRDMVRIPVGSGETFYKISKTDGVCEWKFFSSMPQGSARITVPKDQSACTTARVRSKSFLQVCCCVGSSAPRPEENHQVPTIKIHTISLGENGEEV
# Test: not given
# Conditions: not given
row,IC50 [nM],Compound
1,131,Br.Cc1ccc(N2CCN(C[C@@H]3C[C@H]3c3ccccc3)CC2)c(C)c1
2,31,Br.Cc1cc(F)ccc1N1CCN(C[C@H]2C[C@@H]2c2ccccc2)CC1
3,307,Br.Cc1cc(Cl)ccc1N1CCN(C[C@H]2C[C@@H]2c2ccccc2)CC1
4,29,Br.COc1cc(Cl)ccc1N1CCN(C[C@H]2C[C@@H]2c2ccccc2)CC1
5,14,Br.Br.COc1cc(F)ccc1N1CCN(C[C@H]2C[C@@H]2c2ccccc2)CC1
6,322,Br.Clc1ccc(N2CCN(C[C@H]3C[C@@H]3c3ccccc3)CC2)c(Cl)c1
7,137,Br.Cc1ccc(N2CCN(C[C@H]3C[C@@H]3c3ccccc3)CC2)c(C)c1
8,348,Clc1ccc(N2CCN(C[C@@H]3C[C@H]3c3ccccc3)CC2)c(Cl)c1
9,74,Br.Oc1ccc([C@H]2C[C@@H]2CN2CCN(c3ccc(Cl)cc3Cl)CC2)cc1 (racemic)
10,193,Br.COc1c(Cl)cc(N2CCN(C[C@H]3C[C@@H]3c3ccccc3)CC2)cc1Cl (racemic)
11,8,Br.COc1ccc(Cl)cc1N1CCN(C[C@H]2C[C@@H]2c2ccccc2)CC1 (racemic)
12,61,Br.COc1ccc([C@H]2C[C@@H]2CN2CCN(c3ccc(Cl)cc3Cl)CC2)cc1 (racemic)
13,> 10000,Br.c1ccc([C@H]2C[C@@H]2CN2CCN(c3ccncc3)CC2)cc1 (racemic)
14,45,Br.Clc1ccc(N2CCN(C[C@H]3C[C@@H]3c3ccccc3)CC2)cc1Cl (racemic)
15,329,Br.Clc1cccc(N2CCN(C[C@H]3C[C@@H]3c3ccccc3)CC2)c1Cl (racemic)
16,10,Br.Clc1ccccc1N1CCN(C[C@H]2C[C@@H]2c2ccccc2)CC1 (racemic)
17,324,Br.COc1cccc(N2CCN(C[C@H]3C[C@@H]3c3ccccc3)CC2)c1 (racemic)
18,9,Br.Fc1ccc([C@H]2C[C@@H]2CN2CCN(c3ccccc3Cl)CC2)cc1 (racemic)
19,81,Br.Clc1ccc(N2CCN(C[C@H]3C[C@@H]3c3ccccc3)CC2)cc1 (racemic)
20,70,Br.Clc1cccc(N2CCN(C[C@H]3C[C@@H]3c3ccccc3)CC2)c1 (racemic)
21,61,Br.Fc1ccc([C@H]2C[C@@H]2CN2CCN(c3ccc(Cl)cc3)CC2)cc1 (racemic)
22,633,Br.COc1ccc(N2CCN(C[C@H]3C[C@@H]3c3ccccc3)CC2)cc1 (racemic)
23,1341,Br.Clc1cc(Cl)cc(N2CCN(C[C@H]3C[C@@H]3c3ccccc3)CC2)c1 (racemic)
24,168,Cl.c1ccc([C@H]2C[C@@H]2CN2CCN(c3ncccn3)CC2)cc1 (racemic)
25,55,Cl.c1ccc([C@H]2C[C@@H]2CN2CCN(c3ccccn3)CC2)cc1 (racemic)
26,311,Br.Clc1ccc(N2CCN(C[C@H]3C[C@@H]3c3ccccc3)CC2)c(Cl)c1 (racemic)
27,144,Br.Cc1ccc(N2CCN(CC3CC3c3ccccc3)CC2)c(C)c1 (racemic)
28,22,c1ccc([C@H]2C[C@@H]2CN2CCN(c3ccccc3)CC2)cc1 (racemic)

row,Compound,IC50 [nM]
1,Br.c1ccc([C@H]2C[C@@H]2CN2CCN(c3cccnc3)CC2)cc1 (racemic),> 1246

# Species: Rattus norvegicus
# Test: animal or person
# Conditions: read-out: MED
# Remark: another data set of the same source
# Description: Minimum effective dose observed in rat catalepsy experiments
row,Compound,minimal effective dose [mg/kg]
1,O=C(CCCN1CCC(O)(c2ccc(Cl)cc2)CC1)c1ccc(F)cc1 [HALOPERIDOL],0.5
